Values quoted from earlier work, collected in patent US9783526B2, “Control of hypoxia-inducible gene expression with oligooxopiperazine nonpeptidic helix mimetics” (New York University, priority 2012, dated 2017).

How the values were obtained:
[1] = system: experimental animals; details: in vivo
[2] = system: HIF-1α C-TAD and p300/CBP

Compound | adverse effects in experimental animals [1] | inhibition of the interaction between HIF-1α C-TAD and p300/CBP [2]
CN1C(=O)[C@@]23C[C@]4([C@]56C[C@@]78SS[C@@](CO)(C(=O)N7[C@H]5Nc5ccccc56)N(C)C8=O)c5ccccc5N[C@@H]4N2C(=O)[C@]1(CO)SS3 [chaetocin] | induced coagulative necrosis, anemia, and leukocytosis | 
CN1C(=O)[C@]2(Cc3cn([C@]45C[C@@]67SS[C@@](CO)(C(=O)N6[C@H]4Nc4ccccc45)N(C)C7=O)c4ccccc34)SS[C@@]1(CO)C(=O)N2C [chetomin] | induced coagulative necrosis, anemia, and leukocytosis | inhibit the interaction
